According to ChEMBL document CHEMBL1275276, “Analysis of physico-chemical properties of substrates of ABC and MFS multidrug transporters of pathogenic Candida albicans” (2010):
Activity calls are given as the source filed them. How the calls were made is not given here.

Columns and labels:
Saccharomyces cerevisiae [1] = test: Antifungal activity against yeast AD1-8u expressing Candida albicans CaCdr1p by agar disk diffusion assay; format: functional
Saccharomyces cerevisiae [2] = test: Antifungal activity against yeast AD1-8u expressing Candida albicans CaMdr1p by agar disk diffusion assay; format: functional; further: test concentration or dose not given here
Candida albicans [3] = test: Binding affinity to Candida albicans CaMdr1p expressed in yeast AD1-8u
Candida albicans [4] = test: Binding affinity to Candida albicans CaCdr1p expressed in yeast AD1-8u
Wherever IZ is given: test concentration or dose not given here.

Compound | inhibition zone (IZ) (Saccharomyces cerevisiae [1]) [cm] | inhibition zone (IZ) (Saccharomyces cerevisiae [2]) [cm] | Activity (Candida albicans [3]) | Activity (Candida albicans [4])
O=C1c2c(O)ccc(O)c2C(=O)c2c(NCCNCCO)ccc(NCCNCCO)c21 [MITOXANTRONE] | 0.2 | 0.3 | Active | inactive
COc1c(C)c2c(c(O)c1C/C=C(\C)CCC(=O)O)C(=O)OC2 [MYCOPHENOLIC ACID] | 0 | 0 | inactive | inactive
COC(=O)C1=C(C)NC(C)=C(C(=O)OC)C1c1ccccc1[N+](=O)[O-] [NIFEDIPINE] | 0 | 0 | inactive | inactive
COC(=O)C1=C(C)NC(C)=C(C(=O)OCCCN2CCC(c3ccccc3)(c3ccccc3)CC2)[C@H]1c1cccc([N+](=O)[O-])c1 [NIGULDIPINE] | 0.5 | 0.2 | inactive | Active
COCCOC(=O)C1=C(C)NC(C)=C(C(=O)OC(C)C)C1c1cccc([N+](=O)[O-])c1 (stereo unspecified) [NIMODIPINE] | 0 | 0 | inactive | inactive
CO[C@@H]1[C@@H](OC(N)=O)[C@@H](O)[C@H](Oc2ccc3c(O)c(NC(=O)c4ccc(O)c(CC=C(C)C)c4)c(=O)oc3c2C)OC1(C)C [NOVOBIOCIN] | 0 | 0 | inactive | inactive
C[C@@H]1O[C@@H](O[C@H]2C[C@@H](O)[C@]3(CO)[C@H]4[C@H](O)C[C@]5(C)[C@@H](C6=CC(=O)OC6)CC[C@]5(O)[C@@H]4CC[C@]3(O)C2)[C@H](O)[C@H](O)[C@H]1O [OUABAIN] | 0 | 0 | inactive | inactive
Oc1cccc2cccnc12 [OXYQUINOLINE] | 0 | 0 | inactive | inactive
CC(=O)O[C@H]1C(=O)[C@@]2(C)[C@H]([C@H](OC(=O)c3ccccc3)[C@]3(O)C[C@H](OC(=O)[C@H](O)[C@@H](NC(=O)c4ccccc4)c4ccccc4)C(C)=C1C3(C)C)[C@]1(OC(C)=O)CO[C@@H]1C[C@@H]2O [PACLITAXEL] | 0 | 0 | inactive | inactive
CC(=O)[C@H]1CC[C@H]2[C@@H]3CCC4=CC(=O)CC[C@]4(C)[C@H]3CC[C@]12C [PROGESTERONE] | 0 | 0 | inactive | inactive
CCC(=O)Nc1ccc(Cl)c(Cl)c1 [PROPANIL] | 0.3 | 0.9 | Active | Active
O=c1c(O)c(-c2ccc(O)c(O)c2)oc2cc(O)cc(O)c12 [QUERCETIN] | 0 | 0 | inactive | inactive
C=C[C@H]1CN2CC[C@H]1C[C@@H]2[C@@H](O)c1ccnc2ccc(OC)cc12 [QUINIDINE] | 0.8 | 0.8 | Active | Active
COC(=O)c1ccccc1-c1c2ccc(=N)cc-2oc2cc(N)ccc12.Cl [RHODAMINE123] | 1 | 0.1 | inactive | Active
CC/N=c1\cc2oc3cc(NCC)c(C)cc3c(-c3ccccc3C(=O)OCC)c-2cc1C.Cl [RHODAMINE 6G HYDROCHLORIDE] | 0.8 | 0.2 | inactive | Active
CO[C@H]1/C=C/O[C@@]2(C)Oc3c(C)c(O)c4c(O)c(c(/C=N/N5CCN(C)CC5)c(O)c4c3C2=O)NC(=O)/C(C)=C\C=C\[C@H](C)[C@H](O)[C@@H](C)[C@@H](O)[C@@H](C)[C@H](OC(C)=O)[C@@H]1C [RIFAMPIN] | 0 | 0 | inactive | inactive
CC/C(=C(\c1ccccc1)c1ccc(OCCN(C)C)cc1)c1ccccc1 [TAMOXIFEN] | 0.7 | 0.2 | inactive | Active
CN(C/C=C/C#CC(C)(C)C)Cc1cccc2ccccc12 [TERBINAFINE] | 1.2 | 0 | inactive | Active
CC(=O)Nc1c2sscc-2n(C)c1=O [THIOLUTIN] | 0 | 0.7 | Active | inactive
CC[C@@]1(O)C(=O)OCc2c1cc1n(c2=O)Cc2cc3c(CN(C)C)c(O)ccc3nc2-1 [TOPOTECAN] | 0.5 | 0.2 | inactive | Active
c1ccc(C(c2ccccc2)(c2ccccc2)c2ncc[nH]2)cc1 [TRITYL IMIDAZOLE] | 1.3 | 0 | inactive | Active
CC[C@]1(O)C[C@@H]2CN(CCc3c([nH]c4ccccc34)[C@@](C(=O)OC)(c3cc4c(cc3OC)N(C)[C@H]3[C@@](O)(C(=O)OC)[C@H](OC(C)=O)[C@]5(CC)C=CCN6CC[C@]43[C@@H]65)C2)C1 [VINBLASTINE] | 0.6 | 0 | inactive | Active
C[C@@H](c1ncncc1F)[C@](O)(Cn1cncn1)c1ccc(F)cc1F [VORICONAZOLE] | 1.9 | 0.8 | Active | Active
COC(=O)[C@@H]1[C@H]2C[C@H]3c4[nH]c5ccccc5c4CCN3C[C@@H]2CC[C@@H]1O.Cl [YOHIMBINE HYDROCHLORIDE] | 1.3 | 1.3 | Active | Active
